Results on 20 compounds are retold here after ChEMBL document CHEMBL4184114, “Discovery of selective, orally bioavailable inhibitor of mouse chitotriosidase” (Bioorg Med Chem Lett, 2018).

The target in data set [1] is Acidic mammalian chitinase (Mus musculus, UniProt Q91XA9). The data set can be described thus: Inhibition of mouse AMCase using 4-methylumbelliferyl beta-D-N,N' diacetylchitobioside hydrate as substrate measured after 60 mins by fluorometric method.
Data set [2] concerns the target Chitotriosidase-1 (Mus musculus, UniProt Q9D7Q1). In words: Inhibition of mouse CHIT1 using 4-methylumbelliferyl beta-D-N,N',N'' triacetylchitotrioside as substrate measured after 60 mins by fluorometric method.
A short description of data set [3]: AUC (0 to infinity) in BALB/c mouse at 10 mg/kg, po by LC-MS/MS analysis. It counts as ADME, organism-based. Details: dose 10 mg/kg, time infinity, route oral. Particulars: in vivo.
Data set [4] in a line: Half-life in BALB/c mouse at 3 mg/kg, iv administered as bolus dose by LC-MS/MS analysis. It counts as ADME, organism-based. Particulars: in vivo.
The nature of data set [5]: AUC (0 to infinity) in BALB/c mouse at 3 mg/kg, iv administered as bolus dose by LC-MS/MS analysis. The note with it: in vivo. Type of data set: ADME, organism-based. Details: dose 3 mg/kg, route intravenous, time infinity.
Data set [6] in a line: Clearance in BALB/c mouse at 3 mg/kg, iv administered as bolus dose by LC-MS/MS analysis. Type of data set: ADME, organism-based. Particulars: in vivo.
The nature of data set [7]: Oral bioavailability in BALB/c mouse at 10 mg/kg by LC-MS/MS analysis. It counts as ADME, organism-based. The note with it: in vivo.
Data set [8] in a line: Volume of distribution at steady state in BALB/c mouse at 3 mg/kg, iv administered as bolus dose by LC-MS/MS analysis. Type of data set: ADME, organism-based. The note with it: in vivo, read-out: Vdss.
Data set [9] in a line: Cmax in BALB/c mouse at 3 mg/kg, iv administered as bolus dose by LC-MS/MS analysis. Particulars: in vivo. It counts as ADME, organism-based. Details: dose 3 mg/kg, route intravenous.
Data set [10] is described as follows: Tmax in BALB/c mouse at 10 mg/kg, po by LC-MS/MS analysis. It counts as ADME, organism-based. The note with it: in vivo.
The nature of data set [11]: Half-life in BALB/c mouse at 10 mg/kg, po by LC-MS/MS analysis. Type of data set: ADME, organism-based. The note with it: in vivo.
A short description of data set [12]: Cmax in BALB/c mouse at 10 mg/kg, po by LC-MS/MS analysis. Type of data set: ADME, organism-based. The arrangement: dose 10 mg/kg, route oral. Particulars: in vivo.

Chitotriosidase-1, sequence (Q9D7Q1 whole entry): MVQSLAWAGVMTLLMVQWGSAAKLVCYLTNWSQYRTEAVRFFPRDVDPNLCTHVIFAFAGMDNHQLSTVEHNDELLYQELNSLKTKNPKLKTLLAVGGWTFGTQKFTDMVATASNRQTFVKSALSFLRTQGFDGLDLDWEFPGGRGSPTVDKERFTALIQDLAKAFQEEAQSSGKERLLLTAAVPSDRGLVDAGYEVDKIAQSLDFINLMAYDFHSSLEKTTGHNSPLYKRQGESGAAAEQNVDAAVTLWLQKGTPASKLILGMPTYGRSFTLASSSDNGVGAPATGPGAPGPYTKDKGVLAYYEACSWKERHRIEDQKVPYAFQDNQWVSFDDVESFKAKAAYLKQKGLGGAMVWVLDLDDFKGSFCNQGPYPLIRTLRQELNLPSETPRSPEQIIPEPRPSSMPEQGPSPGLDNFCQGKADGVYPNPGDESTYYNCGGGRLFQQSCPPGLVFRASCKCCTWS
Acidic mammalian chitinase, sequence (Q91XA9 whole entry): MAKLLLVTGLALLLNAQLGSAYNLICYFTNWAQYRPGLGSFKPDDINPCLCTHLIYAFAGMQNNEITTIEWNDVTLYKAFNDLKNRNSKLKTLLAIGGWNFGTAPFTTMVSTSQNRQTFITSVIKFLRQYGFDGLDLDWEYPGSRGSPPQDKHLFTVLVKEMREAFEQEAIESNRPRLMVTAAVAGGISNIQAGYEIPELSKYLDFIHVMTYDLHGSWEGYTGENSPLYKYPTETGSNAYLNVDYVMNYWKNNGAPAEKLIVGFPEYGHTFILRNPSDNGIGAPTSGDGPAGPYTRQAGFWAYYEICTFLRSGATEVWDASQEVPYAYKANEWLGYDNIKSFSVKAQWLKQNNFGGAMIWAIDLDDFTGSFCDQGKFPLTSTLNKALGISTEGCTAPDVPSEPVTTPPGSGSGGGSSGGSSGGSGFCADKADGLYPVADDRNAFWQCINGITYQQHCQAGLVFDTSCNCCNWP

One may read the IC50 as the concentration that inhibits the measured activity by half. A lower IC50 goes with greater potency in that assay. `Nc1nc(N2CCC(N3C[C@@H]4C[C@H](O)CN4C[C@@H]3Cc3ccc(Cl)cc3)CC2)n[nH]1`: the figures for the IC50 in data set [1] and in data set [2] were 130 nM and 29 nM, respectively.

`C[C@H]1CN(C2CCN(c3n[nH]c(N)n3)CC2)[C@@H](Cc2ccc(Cl)cc2)CN1Cc1ccc(Cl)cc1`: the IC50 in data set [1] came out at 1400 nM; in data set [2], 495 nM.

On to `C[C@H]1CN(C2CCN(c3nnc(N)[nH]3)CC2)[C@@H](Cc2ccc(Cl)cc2)CN1C`, for which the IC50 was 1220 nM in [1] and 186 nM in data set [2].

In the case of `CC(=O)N1C[C@H](Cc2ccc(Cl)cc2)N(C2CCN(c3nnc(N)[nH]3)CC2)C[C@@H]1C`, the IC50 in [1] stood at 6020 nM; in data set [2], 4380 nM.

As usually defined, the AUC(0-inf) is the area under the concentration-time curve extrapolated to infinity. A low value points to less exposure. As a reminder, the half-life is the time in which the quantity being followed falls by half. Read a high half-life as slow loss. The term clearance denotes the rate of elimination divided by the concentration. A higher clearance goes with a high capacity for elimination. As a reminder, the bioavailability is the share of a dose that reaches the circulation, judged against a reference dose that is usually intravenous. A word on the Cmax: it is the maximum level reached in the sampled fluid or tissue. As usually defined, the Tmax is the time from dosing to the highest level. As for `CC(C)CN1C[C@H](Cc2ccc(Cl)cc2)N(C2CCN(c3n[nH]c(N)n3)CC2)C[C@@H]1C`, the AUC(0-inf) in data set [3] turned out to be 3570 ng·h/mL; in [5], 1750 ng·h/mL. For the same compound, the values for the half-life in data set [4] and in data set [11] were 2.87 h and 2.83 h, respectively. The compound also gave a clearance in [6] of 28.5 mL/min/kg. Moreover, in data set [7], the bioavailability is 61.2%. The Vd in data set [8] was found to be 4.6 L/kg. Also, the Cmax came out at 1480 ng/mL in data set [9] and 840 ng/mL in data set [12]. Further, the time of peak concentration (Tmax) in [10] was 0.5 h. In addition, the IC50 stood at 4170 nM in data set [1] and 29 nM in data set [2].

`Nc1nc(N2CCC(N3C[C@@H]4CCCCN4C[C@@H]3Cc3ccc(Cl)cc3)CC2)n[nH]1`: the IC50 in [1] is 525 nM; in data set [2], 175 nM.

As for `CN1CCN(C2CCN(c3nnc(N)[nH]3)CC2)[C@@H](Cc2ccc(Cl)cc2)C1`, the figures for the IC50 in data set [1] and in [2] were 7600 nM and 1590 nM, respectively.

Regarding `C[C@H]1CN(C2CCN(c3n[nH]c(N)n3)CC2)[C@@H](Cc2ccc(Cl)cc2)CN1CC(=O)N(C)C`, the values for the IC50 in [1] and in data set [2] were 751 nM and 24 nM, respectively.

In the case of `CN1C[C@H](Cc2ccc(Cl)cc2)N(C2CCN(c3nnc(N)[nH]3)CC2)C[C@@H]1CO`, the results for the IC50 in [1] and in [2] were 1250 nM and 175 nM, respectively.

With `C[C@H]1CN(C2CCN(c3nnc(N)[nH]3)CC2)[C@@H](Cc2ccc(Cl)cc2)CN1S(C)(=O)=O`, the IC50 in [1] was 3720 nM; in data set [2] it was 1010 nM.

Regarding `COC(=O)N1C[C@H](Cc2ccc(Cl)cc2)N(C2CCN(c3nnc(N)[nH]3)CC2)C[C@@H]1C`, the IC50 in data set [1] came out at 3750 nM; in data set [2], 461 nM.

Regarding `CC(C)C[C@H]1CN(C2CCN(c3n[nH]c(N)n3)CC2)[C@@H](Cc2ccc(Cl)cc2)CN1`, the IC50 in data set [1] is 2910 nM; in [2], 135 nM.

As to `CC(C)C[C@H]1CN(C2CCN(c3nnc(N)[nH]3)CC2)[C@@H](Cc2ccc(Cl)cc2)CN1C`, the figures for the IC50 in data set [1] and in [2] were 936 nM and 95 nM, respectively.

With `Nc1nc(N2CCC(N3C[C@@H]4C[C@@H](O)CN4C[C@@H]3Cc3ccc(Cl)cc3)CC2)n[nH]1`, the IC50 in data set [1] is 136 nM; in [2] it was 48 nM.

With `CN1C[C@H](Cc2ccc(Cl)cc2)N(C2CCN(c3nnc(N)[nH]3)CC2)C[C@@H]1CC1CCCCC1`, the IC50 was 640 nM in [1] and 128 nM in data set [2].

On to `CC(C)C[C@H]1CN(C2CCN(c3n[nH]c(N)n3)CC2)[C@@H](Cc2ccc(Cl)cc2)CN1CC(C)C`, for which the figures for the IC50 in data set [1] and in data set [2] were 5700 nM and 41 nM, respectively.

As for `COC(=O)CN1C[C@H](Cc2ccc(Cl)cc2)N(C2CCN(c3n[nH]c(N)n3)CC2)C[C@@H]1C`, the IC50 in data set [1] came to 231 nM; in data set [2], 29 nM.

`C[C@H]1CN(C2CCN(c3nnc(N)[nH]3)CC2)[C@@H](Cc2ccc(Cl)cc2)CN1CC(=O)O`: the IC50 turned out to be 527 nM in data set [1] and 53 nM in [2].

Turning to `Nc1nnc(N2CCC(N3C[C@@H]4CCCN4C[C@@H]3Cc3ccc(Cl)cc3)CC2)[nH]1`, the IC50 was 697 nM in [1] and 161 nM in data set [2].

Take `CN1C[C@H](Cc2ccc(Cl)cc2)N(C2CCN(c3nnc(N)[nH]3)CC2)C[C@@H]1Cc1ccc(Cl)cc1`: the figures for the concentration for half-maximal inhibition (IC50) in data set [1] and in data set [2] were 518 nM and 103 nM, respectively.
